Tests used:
TRPA1 = target: T1, TRPA1 (Mus musculus, UniProt Q8BLA8); assay: AITC (mustard)-induced calcium response in DRG neurons (specificity control); format: cell-based; conditions: perfusion with 100 nM cilengitide
T1 construct: endogenous in cells; host or cells: primary mouse dorsal root ganglion neurons
Experimental: (§1) Before imaging, cells were incubated in 350 μL of complete media containing 1 μM Fura-2 AM (Enzo Life Sciences, Farmingdale, New York, United States of America) for 30 min at 37° C. with 5% CO2. During imaging, the cells were perfused with a buffer containing the following: 135 mM sodium chloride, 3.2 mM potassium chloride, 2.5 mM magnesium chloride, 2.8 mM calcium chloride, 667 μM monobasic sodium phosphate, 14.2 mM sodium bicarbonate, and 10.9 mM D-glucose (all from VWR International, Radnor, Pennsylvania, United States of America) with a pH between 7.00 and 7.40. The buffer and the holding plate were kept at 37° C. while imaging. Imaging data was collected on a TE200 inverted microscope using NIS Elements software (Nikon, Melville, New York, United States of America). Cells were exposed to 340 nm and 380 nm wavelengths for 100 ms and the A340/A380 ratio was calculated. Traces were analyzed using Excel and responses greater than 10% of the baseline were counted. Each data point in the scatter plots represented one coverslip.

[1] = test system: periostin-induced itch behavior in mice; assay: Scratching behavior after intradermal periostin injection in the dorsal neck of mice; format: in vivo, mouse
Experimental: All behavioral experiments were conducted during the light cycle at ambient temperature (23° C.). Behavioral assessment of scratching behavior was conducted as described previously (Mishra et al., 2011). Briefly, mice were injected intradermal into the nape of the neck with periostin (R&D), histamine, and chloroquine (all Millipore-Sigma) as previously described (Shimada and LaMotte, 2008). Compounds were diluted in PBS and the same was used as a vehicle. […] Scratching behavior was recorded for 30 minutes and data was presented in bouts per 30 minutes for mice. One bout was defined as scratching behavior toward the injection site between lifting the hind leg from the ground and either putting it back on the ground or guarding the paw with the mouth. Injections of periostin, and capsaicin in the mouse cheek itch/pain model were performed as described previously (Shimada and LaMotte, 2008). For eye wipes assay, periostin and capsaicin were dropped on mouse cornea and counted wipes for 1-minute. Injection volume was always 20 μl in mice. For dog's study, periostin (25 μg/25 μl) was injected in the dorsal neck (s.c.) and behavior was recorded and quantified for 30 minutes as “duration of pruritus manifestation” (DPM), as described earlier (Paps et al., 2016). For non-human primate (NHP) studies, periostin (25 μg/100 μl) was injected in the NHP thigh (s.c.) on the lateral side of the upper part of the hind limb; the skin area over the vastus lateralis muscle. The lateral side of the upper part of the hind limb was chosen as an injection site because this location is safe and easy to access when the animal is in a chair. The number of scratches is easily countable in NHP. When different raters separately scored a single tape, the ratings indicated high interrater reliability (coefficient of correlation, r>0.95). This method of itch readout in NHP has been used and accepted (Ko and Naughton, 2000). The behavior was recorded for 30 minutes duration and number of scratches quantified. In NHP, a scratch is defined as one brief (<1 s) episode of scraping contact of the forepaw or hind paw on the skin surface

[2] = test system: Integrin αvβ3 on DRG Sensory Neurons; assay: Fura-2 calcium imaging of periostin-induced calcium response in cultured DRG sensory neurons; format: cell-based, mouse; conditions: periostin 16 ng/μl
Experimental: DRGs were isolated from mice and dissociated in 1 mL of media containing 2.5 U/mL of dispase (Fisher Scientific, Hampton, New Hampshire, United States of America) and 2.5 mg/mL of collagenase (Fisher Scientific, Hampton, New Hampshire, United States of America). After dissociation, the cells were washed with complete media (DMEM (HiMedia Laboratories, Mumbai, India) with 10% FBS (Atlanta Biologicals, Flowery Branch, Georgia, United States of America) and 1% PenStrep (VWR International, Radnor, Pa., United States of America)) and pelleted at 1000 rpm for 15 minutes. Approximately 30 μL of the cell suspension was plated on 18 mm round glass slides with a coating of laminin (Sigma Aldrich, St. Louis, Miss., United States of America) and poly-L-lysine (Sigma Aldrich, St. Louis, Miss., United States of America) and incubated for 1.5 hours. Afterwards, 1 mL of complete media was added, and the cells were incubated overnight. All incubation steps were done at 37° C. with 5% CO2.
as §1
Calcium Imaging: Calcium imaging will be performed on the DRG neurons as previously described (Pitake et al., 2018). Briefly, DRG neurons will be incubated for longer than 30 min in DMEM containing 1 μM of a fluorescent indicator Fura-2 AM (Enzo Life Sciences, Inc., Farmingdale, N.Y., United States of America). The neurons will be perfused in a standard bath solution containing 140 mM NaCl, 5 mM KCl, 2 mM MgCl2, 2 mM CaCl2, 10 mM Hepes and 10 mM D-glucose at pH 7.4 adjusted with NaOH. A calcium-free bath solution will be prepared by omitting 2 mM CaCl2 from the standard bath solution […] adding 5 mM EGTA. Fura-2 fluorescence excited at 340 and 380 nm and emission will be monitored at 510 nm with a digital CCD camera (Andor Clara DR-4152, Andor Technology Ltd, Belfast, United Kingdom). Data will be obtained by every 100 ms using an imaging software (NIS-Elements AR 4.13.04, Nikon Corporation, Tokyo, Japan) and analyzed by Microsoft Excel (Microsoft Corporation, Redmond, Wash., United States of America). Values of calcium responses will be normalized by dividing measured values (F) with average values of initial 5 frames (F0) of each cell and described as F/F0. In this study, changes in each response to an application with F/F0>0.1 will be regarded as positive. Cells not responding to 100 mM KCl, which is applied at the end of each experiment, will be regarded as non-neuronal cells and excluded from analysis.
Periostin (10 ug/ml) will be used to evoke calcium influx. This response has been optimized. The peptide inhibitors will be tested on DRG neurons to measure calcium influx in response to periostin. Data on calcium imaging will be presented by presenting each mouse±SEM. The IC50 value of the inhibitor will also be determined
Additional inhibitors were studied using the calcium imaging method described in Example 3. Briefly, the Fura2-AM calcium imaging method was performed on live dorsal root ganglia (DRG) neurons (ex vivo). […]

[3] = test system: Mouse bone marrow-derived mast cells; assay: Mast cell degranulation (β-hexoseaminidase release); format: cell-based; conditions: increasing concentrations, 30 minutes challenge
Experimental: Mouse bone marrow-derived mast cells were cultured from femurs of C57B1/6J mice as described (Jensen et al., 2006). Degranulation was assessed by measuring β-hexoseaminidase release as described (Cruse et al., 2013) using mast cells sensitized with 100 ng/mL anti-DNP IgE (SPE7 clone) (Sigma Aldrich, St. Louis, Miss., United States of America) for 16 hours, before the cells were challenged for 30 minutes with the indicated stimulus.

T1 sequence (Q8BLA8 whole entry, the tested form may be a part): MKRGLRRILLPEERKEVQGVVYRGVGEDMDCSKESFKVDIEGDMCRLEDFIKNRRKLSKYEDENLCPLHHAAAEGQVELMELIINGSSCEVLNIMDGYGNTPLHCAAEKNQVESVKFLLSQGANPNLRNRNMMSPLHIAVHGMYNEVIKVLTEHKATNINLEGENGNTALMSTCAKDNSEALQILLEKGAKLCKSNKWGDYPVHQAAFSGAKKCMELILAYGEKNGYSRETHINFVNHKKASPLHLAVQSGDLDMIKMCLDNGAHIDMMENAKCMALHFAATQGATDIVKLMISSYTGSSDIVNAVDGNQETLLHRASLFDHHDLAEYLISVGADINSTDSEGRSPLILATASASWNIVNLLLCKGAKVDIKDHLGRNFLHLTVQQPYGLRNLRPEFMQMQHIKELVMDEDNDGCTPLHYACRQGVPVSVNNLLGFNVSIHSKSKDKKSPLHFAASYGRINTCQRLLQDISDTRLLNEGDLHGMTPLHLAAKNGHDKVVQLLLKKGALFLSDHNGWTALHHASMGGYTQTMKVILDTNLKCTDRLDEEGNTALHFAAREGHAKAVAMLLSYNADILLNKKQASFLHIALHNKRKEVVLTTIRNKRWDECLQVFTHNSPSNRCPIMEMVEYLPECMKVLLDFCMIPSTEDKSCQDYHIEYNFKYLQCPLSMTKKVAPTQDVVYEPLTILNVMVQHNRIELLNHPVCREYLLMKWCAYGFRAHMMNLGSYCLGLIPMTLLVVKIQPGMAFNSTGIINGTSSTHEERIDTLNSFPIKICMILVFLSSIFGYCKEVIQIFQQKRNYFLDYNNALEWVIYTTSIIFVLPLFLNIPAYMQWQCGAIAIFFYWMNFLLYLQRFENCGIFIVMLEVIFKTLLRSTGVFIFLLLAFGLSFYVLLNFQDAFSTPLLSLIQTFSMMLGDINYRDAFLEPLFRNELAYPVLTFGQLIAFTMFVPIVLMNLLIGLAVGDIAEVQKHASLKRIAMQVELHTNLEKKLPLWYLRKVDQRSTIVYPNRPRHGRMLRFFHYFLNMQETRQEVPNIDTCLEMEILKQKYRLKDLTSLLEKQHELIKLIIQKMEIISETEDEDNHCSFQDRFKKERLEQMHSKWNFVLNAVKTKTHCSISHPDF

Row | Molecule | AITC-induced calcium response (TRPA1) | periostin-induced itch behavior ([1]; cilengitide 100 nM i.p. 10 minutes prior to periostin i.d. (5 μg/20 μl)) | periostin-induced itch behavior ([1]; cilengitide 100 nM i.v. 10 minutes prior to periostin i.d. (5 μg/20 μl)) | itch behavior after cilengitide alone ([1]; cilengitide injected alone, no periostin) | comparison of inhibitory effect among routes of injection ([1]; intravenous pre-injection versus i.p. and mix) | periostin-induced itch behavior ([1]; periostin and cilengitide mixed together and injected s.c.) | periostin-dependent calcium response ([2]; perfusion with 100 nM cilengitide) | degranulation of anti-DNP IgE-sensitized mast cells [3] | scratching behavior after periostin injection ([1]; single i.d. injection 5 μg/20 μl in dorsal neck, within 15 minutes) | DRG sensory neurons with periostin-dependent changes in intracellular calcium [2]
1 | CC(C)[C@H]1C(=O)N[C@@H](CCCN=C(N)N)C(=O)NCC(=O)N[C@@H](CC(=O)O)C(=O)N[C@H](Cc2ccccc2)C(=O)N1C [cilengitide, cyclo RGDf-n(Me)V] | did not reduce | significantly reduced | significantly reduced | did not induce itch behavior | strongest inhibitory effect | significantly reduced | significantly reduced | – | – | –
2 | periostin: fasciclin extracellular matrix protein, endogenous ligand of integrin αvβ3; mouse recombinant used (protein) NSYYDKVLAHSRIRGRDQGPNVCALQQILGTKKKYFSSCKNWYQGAICGKKTTVLYECCPGYMRMEGMKGCPAVMPIDHVYGTLGIVGATTTQHYSDVSKLREEIEGKGSYTYFAPSNEAWENLDSDIRRGLENNVNVELLNALHSHMVNKRMLTKDLKHGMVIPSMYNNLGLFINHYPNGVVTVNCARVIHGNQIATNGVVHVIDRVLTQIGTSIQDFLEAEDDLSSFRAAAITSDLLESLGRDGHFTLFAPTNEAFEKLPRGVLERIMGDKVASEALMKYHILNTLQCSEAITGGAVFETMEGNTIEIGCEGDSISINGIKMVNKKDIVTKNGVIHLIDEVLIPDSAKQVIELAGKQQTTFTDLVAQLGLASSLKPDGEYTLLAPVNNAFSDDTLSMDQRLLKLILQNHILKVKVGLSDLYNGQILETIGGKQLRVFVYRTAICIENSCMVRGSKQGRNGAIHIFREIIQPAEKSLHDKLRQDKRFSIFLSLLEAADLKDLLTQPGDWTLFAPTNDAFKGMTSEERELLIGDKNALQNIILYHLTPGVYIGKGFEPGVTNILKTTQGSKIYLKGVNETLLVNELKSKESDIMTTNGVIHVVDKLLYPADIPVGNDQLLELLNKLIKYIQIKFVRGSTFKEIPMTVYRPAMTKIQIEGDPDFRLIKEGETVTEVIHGEPVIKKYTKIIDGVPVEITEKQTREERIITGPEIKYTRISTGGGETGETLQKFLQKEVSKVTKFIEGGDGHLFEDEEIKRLLQGDTPAKKIPANKRVQGPRRRSREGRSQ | – | – | – | – | – | – | – | no degranulation | robust scratching behavior | about 10±2%
